The experiment has as its target T1, ENT1 (Homo sapiens, UniProt Q99808).
T1 construct: expressed in transfected cells; host or cells: Xenopus oocytes injected with ENT1 cRNA
T1 sequence (Q99808 1-456): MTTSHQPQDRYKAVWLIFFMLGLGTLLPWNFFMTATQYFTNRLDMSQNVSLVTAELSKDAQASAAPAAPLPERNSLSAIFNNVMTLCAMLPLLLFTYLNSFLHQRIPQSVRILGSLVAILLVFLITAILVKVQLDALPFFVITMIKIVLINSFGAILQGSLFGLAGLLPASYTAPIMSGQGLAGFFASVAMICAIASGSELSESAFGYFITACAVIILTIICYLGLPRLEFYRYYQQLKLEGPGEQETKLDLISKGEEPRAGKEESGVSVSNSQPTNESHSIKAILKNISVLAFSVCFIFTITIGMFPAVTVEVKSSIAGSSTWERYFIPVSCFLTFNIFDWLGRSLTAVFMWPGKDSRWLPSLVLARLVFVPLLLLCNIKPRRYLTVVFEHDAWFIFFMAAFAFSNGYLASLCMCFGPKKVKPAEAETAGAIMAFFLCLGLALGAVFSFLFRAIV
Put plainly: Uptake of radiolabel into Xenopus oocytes expressing ENT1. Format: cell-based. The note with it: Xenopus oocytes injected with ENT1 cRNA, 10 minutes, scintillation counting. As for the experimental part:
To assess transport function of a specific transporter protein, it can be desirable to clone the cDNA and express the protein in cells that have low endogenous transport activity. Human ENT1 was cloned by PCR, fully sequenced, and subcloned into plasmids that can be used for expression in mammalian cells or Xenopus oocytes. […] For expression in Xenopus oocytes, in vitro ENT1 cRNA was prepared and injected into defoliculated oocytes.
Oocytes expressing ENT1 or control oocytes not expressing ENT1 were incubated in an oocyte ringers (ND96) buffer (90 mM NaCl, 10 mM HemiNa HEPES, 2 mM KCl, 1 mM MgCl, 1.8 mM CaCl2) containing 0.5% bovine serum albumin and 3H urindine (10^6 CPM/ml) for 10 minutes. Oocytes were washed and uptake of radiolabel quantified by scintillation counting.

Each structure is given as a SMILES string.

Experimental findings from US20060003362A1, “ENT1 transporters expressed in cancer cells” (Xenoport, Inc., priority 2004, published 2006) are described below.

Turning to `Nc1ccn([C@@H]2O[C@H](CO)[C@@H](O)C2(F)F)c(=O)n1` [^3H-gemcitabine, gemcitabine], the “uptake into oocytes expressing ENT1 versus noninjected controls” value is reported as “higher levels”.
